Key:
Type in all cases: in vivo
[1] = system: Bactrocera oleae (olive fly); assay: Uptake of alkylated porphyrins by flies fed porphyrin-containing bait; settings: B. oleae
Experimental: (§1) Porphyrins: • a) meso[tri(N-methyl-pyridyl), mono(N-dodecyl-pyridyl)]porphine (abbr.: C12) • b) meso[tri(N-methyl-pyridyl), mono(N-tetradecyl-pyridyl)]porphine (abbr.: C14) • c) meso[tri(N-methyl-pyridyl), mono(N-octadecyl-pyridyl)]porphine (abbr.: C18) Bait: Aqueous solution containing 10% sucrose and 1% autolysed yeast Flies: • a) Ceratitis capitata (fruit fly) age: 1 week; weight: 5-6 mg • b) Bactrocera oleae (olive fly) age: 10 days; weight: 4-4.5 mg • c) Stomoxis calcitrans (stable fly) age: 10 days; weight: 12 mg Irradiation: • a) High pressure halogen lamp, equipped with infrared and UV filters, emission 360-850 nm, operated at intensities in the 760-2,000 μE s^−1m^−2 range • b) Sunlight, mid June at Padua latitude, average intensity of […] μE s^−1m^−2 with minimum and maximum values of 950 and, respectively, 1,380 μE s^−1m^−2
(§2) An appropriate number of flies (50 flies per each experiment) was caged in 115×55×70 mm Plexiglas cages with several holes (ø=0.5 mm) and starved for 36 h. Then, depending on the protocol to be adopted for each specific experiment, the flies were fed with the bait (10% sucrose and 1% autolysed yeast in neutral aqueous solution), which was either porphyrin-free or added with a predetermined concentration of the porphyrin. These flies were then used in the various experimental sessions.
(§3) At predetermined times, the flies were sacrificed by freezing; the dead flies were then homogenized with a Polytron in 10 ml of a 2% aqueous solution of sodium dodecylsulphate (SDS). The suspension was centrifuged for 10 min at 2,000 rpm, the pellet was discarded and known aliquots of the supernatant were diluted by means of a chloroform/methanol binary mixture (1/2, v/v). The porphyrin concentration was measured by reading the fluorescence emitted at wavelengths above 630 nm and interpolating the emission intensity with a calibration plot obtained with known amounts of the porphyrin. The results were expressed as nanomoles of porphyrin recovered per fly.

[2] = system: Ceratitis capitata (fruit fly); assay: as above; settings: C. capitata
Experimental: as §1, §2, §3

[3] = system: Stomoxis calcitrans (stable fly); assay: as above; settings: S. calcitrans
Experimental: as §1, §2, §3

[4] = system: Bactrocera oleae (olive fly); assay: Release of alkylated porphyrin from flies after feeding with bait interrupted; settings: B. oleae, 1.25 μM porphyrin in the bait
Experimental: as §2, §3

[5] = system: Ceratitis capitata (fruit fly); assay: as above; settings: C. capitata, 1.25 μM porphyrin in the bait
Experimental: as §2, §3

[6] = system: Stomoxis calcitrans (stable fly); assay: as above; settings: S. calcitrans, 1.25 μM porphyrin in the bait
Experimental: as §2, §3

[7] = system: Bactrocera oleae flies; assay: Insecticidal action in the dark: fly survival after porphyrin bait; settings: fed 24 h, survival 12 h after change to porphyrin-free bait
Experimental: (§4) These flies were then used in the various experimental sessions. […] The number of survivors was evaluated 12 h after switching from administration of a porphyrin-containing bait to a porphyrin-free bait. In none of the experiments was mortality or any apparent toxic effect observed in control flies (flies not fed with porphyrin, see survival at 0 μM porphyrin concentration).

[8] = system: Stomoxis calcitrans flies; assay: as above; settings: fed 24 h, survival 12 h after change to porphyrin-free bait
Experimental: as §4

[9] = system: Ceratitis capitata flies; assay: Photoinsecticidal action: fly survival after bait and visible light irradiation (artificial lamp); settings: survival 10 h after irradiation
How it was run: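 Medflies (1 week old, 50 per cage) starved 36 h, then fed 10% sucrose/1% autolysed yeast bait with or without porphyrin. Irradiated 1 h with filtered halogen lamp (360–850 nm) at 1220 μE s^−1m^−2; survival scored 10 h after irradiation, controls given porphyrin-free bait.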

[10] = system: Ceratitis capitata flies; assay: Photoinsecticidal action: fly survival after bait and sunlight irradiation; settings: 3 μM in bait, 12 h after feeding, survival 1 h after irradiation
[11] = exposure time to bait 3 h, porphyrin in bait 1.24 μM
[12] = exposure time to bait 12 h, porphyrin in bait 1.24 μM
[13] = exposure time to bait 24 h, porphyrin in bait 1.24 μM
[14] = porphyrin concentration in bait 0.75 (μmoles), feeding 24 h
[15] = porphyrin concentration in bait 1.25 (μmoles), feeding 24 h
[16] = porphyrin concentration in bait 2.10 (μmoles), feeding 24 h
[17] = porphyrin concentration in bait 3.50 (μmoles), feeding 24 h
[18] = porphyrin concentration in bait 6.00 (μmoles), feeding 24 h

CCCCCCCCCCCC[n+]1ccc(-c2c3nc(c(-c4cc[n+](C)cc4)c4ccc([nH]4)c(-c4cc[n+](C)cc4)c4nc(c(-c5cc[n+](C)cc5)c5ccc2[nH]5)C=C4)C=C3)cc1 [C12, meso[tri(N-methyl-pyridyl), mono(N-dodecyl-pyridyl)]porphine]
Recoveries (nmoles of porphyrin per fly) [1, 11]: 0.8 nmoles of porphyrin per fly | Recoveries (nmoles of porphyrin per fly) [1, 12]: 2.6 nmoles of porphyrin per fly | Recoveries (nmoles of porphyrin per fly) [1, 13]: 3.2 nmoles of porphyrin per fly | Recoveries (nmoles of porphyrin per fly) [1, 14]: 2.7 nmoles of porphyrin per fly | Recoveries (nmoles of porphyrin per fly) [1, 15]: 3.2 nmoles of porphyrin per fly | Recoveries (nmoles of porphyrin per fly) [1, 16]: 6.5 nmoles of porphyrin per fly | Recoveries (nmoles of porphyrin per fly) [1, 17]: 9.3 nmoles of porphyrin per fly | Recoveries (nmoles of porphyrin per fly) [1, 18]: 10.6 nmoles of porphyrin per fly | Recoveries (nmoles of porphyrin per fly) [2, 11]: 1.2 nmoles of porphyrin per fly | Recoveries (nmoles of porphyrin per fly) [2, 12]: 3.9 nmoles of porphyrin per fly | Recoveries (nmoles of porphyrin per fly) [2, 13]: 4.1 nmoles of porphyrin per fly | Recoveries (nmoles of porphyrin per fly) [2, 14]: 2.9 nmoles of porphyrin per fly | Recoveries (nmoles of porphyrin per fly) [2, 15]: 4.1 nmoles of porphyrin per fly | Recoveries (nmoles of porphyrin per fly) [2, 16]: 7.3 nmoles of porphyrin per fly | Recoveries (nmoles of porphyrin per fly) [2, 17]: 9.1 nmoles of porphyrin per fly | Recoveries (nmoles of porphyrin per fly) [2, 18]: 12.5 nmoles of porphyrin per fly | Recoveries (nmoles of porphyrin per fly) [3, 11]: 1.4 nmoles of porphyrin per fly | Recoveries (nmoles of porphyrin per fly) [3, 12]: 3.2 nmoles of porphyrin per fly | Recoveries (nmoles of porphyrin per fly) [3, 13]: 3.7 nmoles of porphyrin per fly | Recoveries (nmoles of porphyrin per fly) [3, 14]: 2.5 nmoles of porphyrin per fly | Recoveries (nmoles of porphyrin per fly) [3, 15]: 3.7 nmoles of porphyrin per fly | Recoveries (nmoles of porphyrin per fly) [3, 16]: 6.0 nmoles of porphyrin per fly | Recoveries (nmoles of porphyrin per fly) [3, 17]: 9.0 nmoles of porphyrin per fly | Recoveries (nmoles of porphyrin per fly) [3, 18]: 9.7 nmoles of porphyrin per fly | Recoveries (nmoles of porphyrin per fly), release ([4]; 12 h after feeding interrupted): 2.5 nmoles of porphyrin per fly | Recoveries (nmoles of porphyrin per fly), release ([4]; 24 h after feeding interrupted): 1.4 nmoles of porphyrin per fly | Recoveries (nmoles of porphyrin per fly), release ([4]; 48 h after feeding interrupted): 0.8 nmoles of porphyrin per fly | Recoveries (nmoles of porphyrin per fly), release ([5]; 12 h after feeding interrupted): 2.6 nmoles of porphyrin per fly | Recoveries (nmoles of porphyrin per fly), release ([5]; 24 h after feeding interrupted): 1.1 nmoles of porphyrin per fly | Recoveries (nmoles of porphyrin per fly), release ([5]; 48 h after feeding interrupted): 0.7 nmoles of porphyrin per fly | Recoveries (nmoles of porphyrin per fly), release ([6]; 12 h after feeding interrupted): 2.8 nmoles of porphyrin per fly | Recoveries (nmoles of porphyrin per fly), release ([6]; 24 h after feeding interrupted): 2.0 nmoles of porphyrin per fly | Recoveries (nmoles of porphyrin per fly), release ([6]; 48 h after feeding interrupted): 0.9 nmoles of porphyrin per fly | Survival (% of control untreated flies) ([7]; 0.75 μM in bait): 100 % of control untreated flies | Survival (% of control untreated flies) ([7]; 1.25 μM in bait): 100 % of control untreated flies | Survival (% of control untreated flies) ([7]; 2.10 μM in bait): 85 % of control untreated flies | Survival (% of control untreated flies) ([7]; 3.00 μM in bait): 72 % of control untreated flies | Survival (% of control untreated flies) ([7]; 5.00 μM in bait): 58 % of control untreated flies | Survival (% of control untreated flies) ([7]; 8.10 μM in bait): 51 % of control untreated flies | Survival (% of control untreated flies) ([8]; 0.75 μM in bait): 100 % of control untreated flies | Survival (% of control untreated flies) ([8]; 1.25 μM in bait): 82 % of control untreated flies | Survival (% of control untreated flies) ([8]; 2.10 μM in bait): 64 % of control untreated flies | Survival (% of control untreated flies) ([8]; 3.00 μM in bait): 47 % of control untreated flies | Survival (% of control untreated flies) ([8]; 5.00 μM in bait): 29 % of control untreated flies | Survival (% of control untreated flies) ([8]; 8.10 μM in bait): 16 % of control untreated flies | Survival (% of control untreated flies) ([9]; 3 μM in bait 24 h, time interval feeding-irradiation 0 h, irradiation 1 h at 1220 μE s^−1m^−2): 4 % of control untreated flies | Survival (% of control untreated flies) ([9]; 3 μM in bait 24 h, time interval feeding-irradiation 12 h, irradiation 1 h at 1220 μE s^−1m^−2): 8 % of control untreated flies | Survival (% of control untreated flies) ([9]; 3 μM in bait 24 h, time interval feeding-irradiation 24 h, irradiation 1 h at 1220 μE s^−1m^−2): 23 % of control untreated flies | Survival (% of control untreated flies) ([9]; 3 μM in bait 24 h, time interval feeding-irradiation 48 h, irradiation 1 h at 1220 μE s^−1m^−2): 37 % of control untreated flies | Survival (% of control untreated flies) ([9]; 3 μM in bait, fluence-rate 760 μE s^−1m^−2, irradiated 24 h after feeding (title)): 13 % of control untreated flies | Survival (% of control untreated flies) ([9]; 3 μM in bait, fluence-rate 1220 μE s^−1m^−2, irradiated 24 h after feeding (title)): 4 % of control untreated flies | Survival (% of control untreated flies) ([9]; 3 μM in bait, fluence-rate 1500 μE s^−1m^−2, irradiated 24 h after feeding (title)): 2 % of control untreated flies | Survival (% of control untreated flies) ([9]; 3 μM in bait, fluence-rate 2000 μE s^−1m^−2, irradiated 24 h after feeding (title)): 0 % of control untreated flies | Survival (% of control untreated flies) ([10]; sunlight (average 1150 μE s^−1m^−2) 15 min): 33 % of control untreated flies | Survival (% of control untreated flies) ([10]; sunlight (average 1150 μE s^−1m^−2) 30 min): 17 % of control untreated flies | Survival (% of control untreated flies) ([10]; sunlight (average 1150 μE s^−1m^−2) 45 min): 10 % of control untreated flies | Survival (% of control untreated flies) ([10]; sunlight (average 1150 μE s^−1m^−2) 60 min): 2 % of control untreated flies

— US7384927B2, “Alkylated porphyrins as pesticides acting both in the presence and absence of light” (priority 2003, dated 2008)
